Source: ChEMBL document CHEMBL4680273, “Teixobactin: A Paving Stone toward a New Class of Antibiotics?” (2020)
In brackets after ≈: the same amount, converted by molar mass.

test system: Staphylococcus aureus; assay: Antibacterial activity against Staphylococcus aureus SH1000 incubated for 24 hrs by CLSI-broth microdilution method; type: functional; details: not given

MIC | SMILES
16 µg/mL (≈ 12.6 µM) | CCCCC1NC(=O)[C@H](CCCN/C(=N\C)NC)NC(=O)[C@H](C)NC(=O)[C@H](NC(=O)[C@H](CO)NC(=O)[C@@H](NC(=O)[C@H](NC(=O)[C@@H](CCC(N)=O)NC(=O)[C@H](CO)NC(=O)[C@@H](NC(=O)[C@@H](Cc2ccccc2)NC)[C@@H](C)CC)[C@@H](C)CC)[C@@H](C)CC)[C@H](C)OC1=O (stereo in doubt; 127)

same assay, conditions: Staphylococcus aureus, SH1000, read-out: MIC

MIC | SMILES
32 µg/mL (≈ 24.6 µM) | CC[C@H](C)[C@H](NC(=O)[C@@H](Cc1ccccc1)NC)C(=O)N[C@@H](CO)C(=O)N[C@H](CCC(N)=O)C(=O)N[C@@H](C(=O)N[C@H](C(=O)N[C@@H](CO)C(=O)N[C@H]1C(=O)N[C@@H](C)C(=O)N[C@@H](CCCNC(=N)N)C(=O)NC(CCCC(F)(F)F)C(=O)O[C@H]1C)[C@@H](C)CC)[C@@H](C)CC (some centres not stated)
4 µg/mL (≈ 3.18 µM) | CCCCC1NC(=O)[C@H](CCCNC(=N)NC)NC(=O)[C@H](C)NC(=O)[C@H](NC(=O)[C@H](CO)NC(=O)[C@@H](NC(=O)[C@H](NC(=O)[C@@H](CCC(N)=O)NC(=O)[C@H](CO)NC(=O)[C@@H](NC(=O)[C@@H](Cc2ccccc2)NC)[C@@H](C)CC)[C@@H](C)CC)[C@@H](C)CC)[C@H](C)OC1=O (some centres not stated)
≥ 32 µg/mL | CC[C@H](C)[C@H](NC(=O)[C@@H](Cc1ccccc1)NC)C(=O)N[C@@H](CO)C(=O)N[C@H](CCC(N)=O)C(=O)N[C@@H](C(=O)N[C@H](C(=O)N[C@@H](CO)C(=O)N[C@H]1C(=O)N[C@@H](C)C(=O)N[C@@H](CCCNC(=N)N)C(=O)N[C@@H](C)C(=O)O[C@H]1C)[C@@H](C)CC)[C@@H](C)CC
32 µg/mL (≈ 25.8 µM) | C=CCCC1NC(=O)[C@H](CCCNC(=N)N)NC(=O)[C@H](C)NC(=O)[C@H](NC(=O)[C@H](CO)NC(=O)[C@@H](NC(=O)[C@H](NC(=O)[C@@H](CCC(N)=O)NC(=O)[C@H](CO)NC(=O)[C@@H](NC(=O)[C@@H](Cc2ccccc2)NC)[C@@H](C)CC)[C@@H](C)CC)[C@@H](C)CC)[C@H](C)OC1=O (some centres not stated)
8 µg/mL (≈ 6.5 µM) | CCCC1NC(=O)[C@H](CCCNC(=N)N)NC(=O)[C@H](C)NC(=O)[C@H](NC(=O)[C@H](CO)NC(=O)[C@@H](NC(=O)[C@H](NC(=O)[C@@H](CCC(N)=O)NC(=O)[C@H](CO)NC(=O)[C@@H](NC(=O)[C@@H](Cc2ccccc2)NC)[C@@H](C)CC)[C@@H](C)CC)[C@@H](C)CC)[C@H](C)OC1=O (some centres not stated)
16 µg/mL (≈ 13.2 µM) | CCC1NC(=O)[C@H](CCCNC(=N)N)NC(=O)[C@H](C)NC(=O)[C@H](NC(=O)[C@H](CO)NC(=O)[C@@H](NC(=O)[C@H](NC(=O)[C@@H](CCC(N)=O)NC(=O)[C@H](CO)NC(=O)[C@@H](NC(=O)[C@@H](Cc2ccccc2)NC)[C@@H](C)CC)[C@@H](C)CC)[C@@H](C)CC)[C@H](C)OC1=O (some centres not stated)
16 µg/mL (≈ 12.6 µM) | CCCCC1NC(=O)[C@H](CCCN/C(=N\C)NC)NC(=O)[C@H](C)NC(=O)[C@H](NC(=O)[C@H](CO)NC(=O)[C@@H](NC(=O)[C@H](NC(=O)[C@@H](CCC(N)=O)NC(=O)[C@H](CO)NC(=O)[C@@H](NC(=O)[C@@H](Cc2ccccc2)NC)[C@@H](C)CC)[C@@H](C)CC)[C@@H](C)CC)[C@H](C)OC1=O (stereo in doubt; 128)

test system: Staphylococcus aureus; assay: Antibacterial activity against methicillin resistant Staphylococcus aureus ATCC 33591 incubated for 24 hrs; type: functional; details: not given

SMILES | MIC
CC[C@H](C)[C@H](NC(=O)[C@@H](Cc1ccccc1)NC)C(=O)N[C@@H](CO)C(=O)N[C@H](CCC(N)=O)C(=O)N[C@@H](C(=O)N[C@H](C(=O)N[C@@H](CO)C(=O)N[C@H]1C(=O)N[C@@H](C)C(=O)N[C@H](C)C(=O)N[C@@H]([C@@H](C)CC)C(=O)O[C@H]1C)[C@@H](C)CC)[C@@H](C)CC | 32 µg/mL (≈ 27.6 µM)
CC[C@H](C)[C@H](NC(=O)[C@@H](Cc1ccccc1)NC)C(=O)N[C@@H](C)C(=O)N[C@H](CCC(N)=O)C(=O)N[C@@H](C(=O)N[C@H](C(=O)N[C@@H](CO)C(=O)N[C@H]1C(=O)N[C@@H](C)C(=O)N[C@@H](CCCNC(=N)N)C(=O)N[C@@H]([C@@H](C)CC)C(=O)O[C@H]1C)[C@@H](C)CC)[C@@H](C)CC | 1 µg/mL (≈ 0.814 µM)
CC[C@H](C)[C@H](NC(=O)[C@@H](Cc1ccccc1)NC)C(=O)N[C@@H](CO)C(=O)N[C@H](C)C(=O)N[C@@H](C(=O)N[C@H](C(=O)N[C@@H](C)C(=O)N[C@H]1C(=O)N[C@@H](C)C(=O)N[C@@H](CCCNC(=N)N)C(=O)N[C@@H]([C@@H](C)CC)C(=O)O[C@H]1C)[C@@H](C)CC)[C@@H](C)CC | 1 µg/mL (≈ 0.854 µM)
CC[C@H](C)[C@H](NC(=O)[C@@H](Cc1ccccc1)NC)C(=O)N[C@@H](CO)C(=O)N[C@H](CCC(N)=O)C(=O)N[C@@H](C(=O)N[C@H](C(=O)N[C@@H](CO)C(=O)N[C@H]1C(=O)N[C@@H](C)C(=O)N[C@@H](C)C(=O)N[C@@H]([C@@H](C)CC)C(=O)O[C@H]1C)[C@@H](C)CC)[C@@H](C)CC | 1 µg/mL (≈ 0.863 µM)

test system: Bacillus subtilis; assay: Antibacterial activity against Bacillus subtilis ATCC 6051 incubated for 16 hrs by UV/Visible absorbance method; type: functional; details: not given

MIC | SMILES
1 µg/mL (≈ 0.771 µM) | CC[C@H](C)[C@H](NC(=O)[C@@H](Cc1ccccc1)NC)C(=O)N[C@@H](CO)C(=O)N[C@H](CCC(N)=O)C(=O)N[C@@H](C(=O)NC(C(=O)N[C@@H](CO)C(=O)N[C@H]1C(=O)N[C@@H](C)C(=O)N[C@@H](CCCNC(=N)N)C(=O)NC(C2CCCCC2)C(=O)O[C@H]1C)C1CCCCC1)[C@@H](C)CC (some centres not stated)
32 µg/mL (≈ 27.2 µM) | CC[C@H](C)[C@H](NC(=O)[C@H](NC(=O)[C@@H](CCC(N)=O)NC(=O)[C@H](CO)NC(=O)[C@H](C)NC(=O)[C@@H](Cc1ccccc1)NC)[C@@H](C)CC)C(=O)N[C@@H](CO)C(=O)N[C@H]1C(=O)N[C@@H](C)C(=O)N[C@@H](CCCCN)C(=O)N[C@@H]([C@@H](C)CC)C(=O)O[C@H]1C
16 µg/mL (≈ 13.6 µM) | CC[C@H](C)[C@H](NC(=O)[C@@H](C)NC(=O)[C@@H](CCC(N)=O)NC(=O)[C@H](CO)NC(=O)[C@@H](NC(=O)[C@@H](Cc1ccccc1)NC)[C@@H](C)CC)C(=O)N[C@@H](CO)C(=O)N[C@H]1C(=O)N[C@@H](C)C(=O)N[C@@H](CCCCN)C(=O)N[C@@H]([C@@H](C)CC)C(=O)O[C@H]1C

test system: Staphylococcus aureus; assay: Antibacterial activity against Staphylococcus aureus ATCC 29213 incubated for 16 hrs by UV/Visible absorbance method; type: functional; details: not given

MIC | SMILES
> 32 µg/mL | CC[C@H](C)[C@@H]1NC(=O)[C@H](CCCNC(=N)N)NC(=O)[C@H](C)NC(=O)[C@@H](NC(=O)[C@H](CO)NC(=O)[C@@H](NC(=O)[C@H](NC(=O)[C@@H](CCC(N)=O)NC(=O)[C@H](CO)NC(=O)[C@@H](NC(=O)[C@@H](Cc2ccccc2)NC)[C@@H](C)CC)[C@@H](C)CC)[C@@H](C)CC)[C@H](C)NC1=O
> 32 µg/mL | CC[C@H](C)[C@@H]1NC(=O)[C@H](CCCNC(=N)N)NC(=O)[C@H](C)NC(=O)[C@H](NC(=O)[C@H](CO)NC(=O)[C@@H](NC(=O)[C@H](NC(=O)[C@@H](CCC(N)=O)NC(=O)[C@H](CO)NC(=O)[C@@H](NC(=O)[C@@H](Cc2ccccc2)NC)[C@@H](C)CC)[C@@H](C)CC)[C@@H](C)CC)[C@@H](C)NC1=O
4 µg/mL (≈ 3.18 µM) | CC[C@H](C)[C@H](NC(=O)[C@@H](Cc1ccccc1)NC)C(=O)N[C@@H](CO)C(=O)N[C@H](CCC(N)=O)C(=O)N[C@@H](C(=O)N[C@H](C(=O)N[C@@H](CO)C(=O)N[C@H]1C(=O)N[C@@H](C)C(=O)N[C@@H](CCCNC(=N)N)C(=O)N[C@@H]([C@@H](C)CC)CC(=O)O[C@H]1C)[C@@H](C)CC)[C@@H](C)CC
> 32 µg/mL | CC[C@H](C)[C@@H]1NC(=O)[C@H](CCCNC(=N)N)NC(=O)[C@H](C)NC(=O)[C@@H](NC(=O)[C@H](CO)NC(=O)[C@@H](NC(=O)[C@H](NC(=O)[C@@H](CCC(N)=O)NC(=O)[C@H](CO)NC(=O)[C@@H](NC(=O)[C@@H](Cc2ccccc2)NC)[C@@H](C)CC)[C@@H](C)CC)[C@@H](C)CC)[C@@H](C)NC1=O
1 µg/mL (≈ 0.804 µM) | CC[C@H](C)[C@@H]1NC(=O)[C@H](CCCNC(=N)N)NC(=O)[C@H](C)NC(=O)[C@H](NC(=O)[C@H](CO)NC(=O)[C@@H](NC(=O)[C@H](NC(=O)[C@@H](CCC(N)=O)NC(=O)[C@H](CO)NC(=O)[C@@H](NC(=O)[C@@H](Cc2ccccc2)NC)[C@@H](C)CC)[C@@H](C)CC)[C@@H](C)CC)[C@H](C)NC1=O

Second part, the compound before the results:

SMILES | MIC
CC[C@H](C)[C@H](NC(=O)[C@@H](Cc1ccccc1)NC)C(=O)N[C@@H](CO)C(=O)N[C@H](CCC(N)=O)C(=O)N[C@@H](C(=O)N[C@H](C(=O)N[C@@H](CO)C(=O)N[C@H]1C(=O)N[C@@H](C)C(=O)N[C@@H](CCCNC(=N)N)CC(=O)N[C@@H]([C@@H](C)CC)CC(=O)O[C@H]1C)[C@@H](C)CC)[C@@H](C)CC | 4 µg/mL (≈ 3.14 µM)
CC[C@H](C)[C@H](NC(=O)[C@@H](Cc1ccccc1)NC)C(=O)N[C@@H](CO)C(=O)N[C@H](CCC(N)=O)C(=O)N[C@@H](C(=O)N[C@H](C(=O)N[C@@H](CO)C(=O)N[C@H]1C(=O)N[C@@H](C)CC(=O)N[C@@H](CCCNC(=N)N)CC(=O)N[C@@H]([C@@H](C)CC)CC(=O)O[C@H]1C)[C@@H](C)CC)[C@@H](C)CC | 16 µg/mL (≈ 12.4 µM)
CC[C@H](C)[C@H](NC(=O)[C@@H](Cc1ccccc1)NC)C(=O)N[C@@H](CO)C(=O)N[C@H](CCC(N)=O)C(=O)N[C@@H](C(=O)N[C@H](C(=O)N[C@@H](CO)C(=O)N[C@H]1C(=O)N[C@@H](C)CC(=O)N[C@@H](CCCNC(=N)N)CC(=O)N[C@@H]([C@@H](C)CC)C(=O)O[C@H]1C)[C@@H](C)CC)[C@@H](C)CC | > 32 µg/mL
CC[C@H](C)[C@H](NC(=O)[C@@H](Cc1ccccc1)NC)C(=O)N[C@@H](CO)C(=O)N[C@H](CCC(N)=O)C(=O)N[C@@H](C(=O)N[C@H](C(=O)N[C@@H](CO)C(=O)N[C@H]1C(=O)N[C@@H](C)C(=O)N[C@@H](CCCNC(=N)N)CC(=O)N[C@@H]([C@@H](C)CC)C(=O)O[C@H]1C)[C@@H](C)CC)[C@@H](C)CC | 8 µg/mL (≈ 6.36 µM)
CC[C@H](C)[C@H](NC(=O)[C@@H](Cc1ccccc1)NC)C(=O)N[C@@H](CO)C(=O)N[C@H](CCC(N)=O)C(=O)N[C@@H](C(=O)N[C@H](C(=O)N[C@@H](CO)C(=O)N[C@H]1C(=O)N[C@@H](C)C(=O)N[C@@H](C)C(=O)N[C@@H]([C@@H](C)CC)C(=O)O[C@H]1C)[C@@H](C)CC)[C@@H](C)CC | 1 µg/mL (≈ 0.863 µM)
CC[C@H](C)[C@H](NC(=O)[C@@H](Cc1ccccc1)NC)C(=O)N[C@@H](CO)C(=O)N[C@H](CCC(N)=O)C(=O)N[C@@H](C(=O)N[C@H](C(=O)N[C@@H](CO)C(=O)N[C@H]1C(=O)N[C@@H](C)CC(=O)N[C@@H](CCCNC(=N)N)C(=O)N[C@@H]([C@@H](C)CC)CC(=O)O[C@H]1C)[C@@H](C)CC)[C@@H](C)CC | 32 µg/mL (≈ 25.1 µM)
CC[C@H](C)[C@H](NC(=O)[C@@H](Cc1ccccc1)NC)C(=O)N[C@@H](CO)C(=O)N[C@H](CCC(N)=O)C(=O)N[C@@H](C(=O)N(C)[C@H](C(=O)N[C@@H](CO)C(=O)N[C@H]1C(=O)N[C@@H](C)CC(=O)N[C@@H](CCCNC(=N)N)C(=O)N[C@@H]([C@@H](C)CC)C(=O)O[C@H]1C)[C@@H](C)CC)[C@@H](C)CC | 32 µg/mL (≈ 25.1 µM)
